# Laboratory results from ChEMBL document CHEMBL1759957, “Synthesis and antibacterial evaluation of novel 8-fluoro Norfloxacin derivatives as potential probes for methicillin and vancomycin-resistant Staphylococcus aureus” (2011).
# What was measured:
# Assay in all cases: microbe, parasite or virus in culture
# Assay type in all cases: functional
# Staphylococcus aureus [1] = conditions: ATCC 25923, 24 h
# Description: Antibacterial activity against methicillin- resistant Staphylococcus aureus ATCC 25923 after 24 hrs by spectrophotometry
# Klebsiella pneumoniae = conditions: ATCC 27736, 24 h
# Description: Antibacterial activity against Klebsiella pneumoniae ATCC 27736 after 24 hrs by spectrophotometry
# Staphylococcus aureus [2] = conditions: ATCC 29213, 24 h
# Description: Antibacterial activity against methicillin- resistant and vancomycin resistant Staphylococcus aureus ATCC 29213 after 24 hrs by spectrophotometry
SMILES,MIC (Staphylococcus aureus [1]) [µg/mL],MIC (Klebsiella pneumoniae) [µg/mL],MIC (Staphylococcus aureus [2]) [µg/mL]
CC(C)Nc1c(F)cc2c(=O)c(C(=O)O)cn(Cc3ccc(C(F)(F)F)cc3)c2c1F,3.12,1.56,–
CCn1cc(C(=O)O)c(=O)c2cc(F)c(N3CCN(c4nc(N5CCOCC5)nc(N5CCOCC5)n4)CC3)c(F)c21,3.12,3.12,–
CCn1cc(C(=O)O)c(=O)c2cc(F)c(N3CCN(c4nc(N5CCCCC5)nc(N5CCCCC5)n4)CC3)c(F)c21,> 50,> 50,–
CCn1cc(C(=O)O)c(=O)c2cc(F)c(N3CCN(c4nc(N5CCN(C)CC5)nc(N5CCN(C)CC5)n4)CC3)cc21,0.39,0.39,0.39
CCn1cc(C(=O)O)c(=O)c2cc(F)c(N3CCN(c4nc(NCCCN5CCOCC5)nc(NCCCN5CCOCC5)n4)CC3)c(F)c21,12.5,12.5,–
CCCCNc1nc(NCCCC)nc(N2CCN(c3c(F)cc4c(=O)c(C(=O)O)cn(CC)c4c3F)CC2)n1,0.39,0.39,0.39
CCn1cc(C(=O)O)c(=O)c2cc(F)c(N3CCN(c4nc(NC(C)(C)C)nc(NC(C)(C)C)n4)CC3)c(F)c21,3.12,0.39,–
CCCNc1nc(NCCC)nc(N2CCN(c3c(F)cc4c(=O)c(C(=O)O)cn(CC)c4c3F)CC2)n1,0.78,0.19,0.78
O=C(O)c1cn(Cc2ccc(C(F)(F)F)cc2)c2c(F)c(N3CCN(c4nc(N5CCCCC5)nc(N5CCCCC5)n4)CC3)c(F)cc2c1=O,50,50,–
CN1CCN(c2nc(N3CCN(C)CC3)nc(N3CCN(c4cc5c(cc4F)c(=O)c(C(=O)O)cn5Cc4ccc(C(F)(F)F)cc4)CC3)n2)CC1,25,12.5,–
O=C(O)c1cn(Cc2ccc(C(F)(F)F)cc2)c2c(F)c(N3CCN(c4nc(NCCN5CCOCC5)nc(NCCN5CCOCC5)n4)CC3)c(F)cc2c1=O,12.5,6.25,–
O=C(O)c1cn(Cc2ccc(C(F)(F)F)cc2)c2c(F)c(N3CCN(c4nc(NCCCN5CCOCC5)nc(NCCCN5CCOCC5)n4)CC3)c(F)cc2c1=O,> 50,50,–
CCn1cc(C(=O)O)c(=O)c2cc(F)c(N3CCN(c4cc(C)nc(N5CCOCC5)n4)CC3)c(F)c21,0.39,0.045,0.045
CCn1cc(C(=O)O)c(=O)c2cc(F)c(N3CCN(c4cc(C)nc(N5CCCCC5)n4)CC3)c(F)c21,0.39,0.045,0.39
CCn1cc(C(=O)O)c(=O)c2cc(F)c(N3CCN(c4cc(C)nc(N5CCN(C)CC5)n4)CC3)cc21,> 50,> 50,–
CCn1cc(C(=O)O)c(=O)c2cc(F)c(N3CCN(c4cc(C)nc(NCCN5CCOCC5)n4)CC3)c(F)c21,0.22,0.22,0.19
CCn1cc(C(=O)O)c(=O)c2cc(F)c(N3CCN(c4cc(C)nc(NCCCN5CCOCC5)n4)CC3)c(F)c21,0.22,0.22,0.19
CCCNc1nc(C)cc(N2CCN(c3c(F)cc4c(=O)c(C(=O)O)cn(CC)c4c3F)CC2)n1,0.39,0.09,0.39
CCn1cc(C(=O)O)c(=O)c2cc(F)c(N3CCN(c4cc(C)nc(NC(C)C)n4)CC3)c(F)c21,0.22,0.011,0.19
Cc1cc(N2CCN(c3c(F)cc4c(=O)c(C(=O)O)cn(Cc5ccc(C(F)(F)F)cc5)c4c3F)CC2)nc(NCCCN2CCOCC2)n1,25,6.25,–
Cc1cc(N2CCN(c3c(F)cc4c(=O)c(C(=O)O)cn(Cc5ccc(C(F)(F)F)cc5)c4c3F)CC2)nc(NC(C)(C)C)n1,1.56,0.19,1.56
Cc1cc(N2CCN(c3c(F)cc4c(=O)c(C(=O)O)cn(Cc5ccc(C(F)(F)F)cc5)c4c3F)CC2)nc(NC(C)C)n1,0.78,0.19,0.78
CCn1cc(C(=O)O)c(=O)c2cc(F)c(N3CCNCC3)c(F)c21,0.78,0.045,0.39
CCn1cc(C(=O)O)c(=O)c2cc(F)c(N3CCN(C)CC3)c(F)c21,0.19,0.011,0.19
